Changes are numbered by the printed parent chain. Like-named read-outs stand apart in the source and are kept apart here.
Columns and labels:
Format in all cases: cell-based
TRPV3 (hTRPV3) [1] = molecular target: T1, TRPV3 (hTRPV3) (Homo sapiens, UniProt Q8NET8); assay: cryo-EM structure
T1 sequence (Q8NET8 1-790): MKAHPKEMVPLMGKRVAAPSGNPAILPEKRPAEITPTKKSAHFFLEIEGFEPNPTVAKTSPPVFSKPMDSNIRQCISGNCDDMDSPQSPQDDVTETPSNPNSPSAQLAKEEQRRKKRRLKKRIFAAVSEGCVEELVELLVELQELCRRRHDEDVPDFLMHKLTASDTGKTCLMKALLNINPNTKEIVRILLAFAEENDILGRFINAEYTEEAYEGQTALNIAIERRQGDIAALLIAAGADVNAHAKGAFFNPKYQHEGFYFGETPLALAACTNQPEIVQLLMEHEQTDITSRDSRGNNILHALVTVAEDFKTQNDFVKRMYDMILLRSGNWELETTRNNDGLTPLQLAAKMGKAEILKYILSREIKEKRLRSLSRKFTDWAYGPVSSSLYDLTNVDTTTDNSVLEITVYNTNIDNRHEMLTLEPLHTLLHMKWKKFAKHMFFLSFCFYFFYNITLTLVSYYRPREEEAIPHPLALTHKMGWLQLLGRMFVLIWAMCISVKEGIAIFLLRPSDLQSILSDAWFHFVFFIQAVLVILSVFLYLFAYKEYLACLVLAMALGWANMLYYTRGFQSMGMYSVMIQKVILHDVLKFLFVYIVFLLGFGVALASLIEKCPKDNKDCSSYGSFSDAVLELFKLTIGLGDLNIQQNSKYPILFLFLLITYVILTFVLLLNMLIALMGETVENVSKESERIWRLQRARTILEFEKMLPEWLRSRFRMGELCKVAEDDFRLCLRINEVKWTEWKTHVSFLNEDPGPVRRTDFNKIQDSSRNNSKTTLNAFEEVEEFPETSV

mTRPV3 = molecular target: T2, mTRPV3 (Mus musculus, UniProt Q8K424); assay: whole-cell patch clamp, inhibition of citronellal-evoked currents
T2 sequence (Q8K424 1-791): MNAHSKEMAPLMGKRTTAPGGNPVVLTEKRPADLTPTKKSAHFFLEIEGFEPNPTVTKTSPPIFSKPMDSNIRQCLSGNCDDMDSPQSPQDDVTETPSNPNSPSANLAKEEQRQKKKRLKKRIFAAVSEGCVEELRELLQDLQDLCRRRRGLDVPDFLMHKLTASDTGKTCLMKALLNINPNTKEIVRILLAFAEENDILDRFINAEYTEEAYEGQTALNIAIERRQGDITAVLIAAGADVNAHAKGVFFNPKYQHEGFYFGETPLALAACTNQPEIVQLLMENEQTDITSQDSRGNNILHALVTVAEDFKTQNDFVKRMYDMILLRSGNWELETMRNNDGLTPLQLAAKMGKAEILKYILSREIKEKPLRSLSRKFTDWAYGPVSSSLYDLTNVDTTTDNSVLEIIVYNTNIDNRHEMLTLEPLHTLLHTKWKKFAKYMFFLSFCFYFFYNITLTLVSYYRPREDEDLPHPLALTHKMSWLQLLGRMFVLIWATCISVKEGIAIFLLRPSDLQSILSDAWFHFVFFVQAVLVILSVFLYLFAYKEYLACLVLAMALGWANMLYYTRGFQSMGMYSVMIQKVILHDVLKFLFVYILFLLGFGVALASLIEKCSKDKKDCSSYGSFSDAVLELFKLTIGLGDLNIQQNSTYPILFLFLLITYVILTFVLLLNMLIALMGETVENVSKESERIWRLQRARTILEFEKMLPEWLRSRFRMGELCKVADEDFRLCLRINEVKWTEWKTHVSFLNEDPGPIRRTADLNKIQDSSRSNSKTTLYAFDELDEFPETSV

TRPV3 (hTRPV3) [2] = molecular target: T1, TRPV3 (hTRPV3); assay: cryo-EM structure; remark: listed apart in the source
TRPV3 (hTRPV3) [3] = molecular target: T3, TRPV3 (hTRPV3) (Homo sapiens, UniProt Q8NET8, Q695L); assay: whole-cell patch clamp
T3 sequence (Q8NET8 1-790 Q695L): T1 sequence (Q8NET8 1-790) with Q695L

SMILES: CC(C)=CCC/C(C)=C/C=O [citral]
- EC50 (TRPV3 (hTRPV3) [1]): 6.61 ± 0.93 mM

SMILES: CCCCOc1ccc(C(=O)CCN2CCCCC2)cc1 [dyclonine]
- IC50 (mTRPV3): 0.00073 ± 5e-05 mM

SMILES: C=CC(C)(O)CCC=C(C)C (stereo not shown) [linalool]
- EC50 (TRPV3 (hTRPV3) [2]): 6.19 ± 0.6 mM
- EC50 (TRPV3 (hTRPV3) [3]): 0.42 ± 0.02 mM

— paper PMC11923102 (Nature Communications, 2025)
